Results reported in patent US10604494B2, “Acylated N-(1 ,2,5-oxadiazol-3-yl)-, N-(1,3,4-oxadiazol-2-yl)-, N-(tetrazol-5-yl)- and N-(triazol-5-yl)-aryl carboxamides, and use thereof as herbicides” (Bayer CropScience Aktiengesellschaft, priority 2015, dated 2020).

How the values were obtained:
Type in all cases: in vivo
Veronica persica [1] = test: Pre-emergence herbicidal action against harmful plants; settings: 504 h, application rate 320 g/ha, scored visually after 3 weeks vs untreated controls, 100% = plants have died, 0% = like control plants, read-out: efficacy (herbicidal activity in percent) against Veronica persica
Text: (§1) 1. Pre-Emergence Herbicidal Action Against Harmful Plants Seeds of monocotyledonous and dicotyledonous weed plants and crop plants are laid out in sandy loam in wood-fiber pots and covered with soil. The compounds of the invention, formulated in the form of wettable powders (WP) or as emulsion concentrates (EC), are then applied to the surface of the covering soil in the form of an aqueous suspension or emulsion at a water application rate equating to 600 to 800 I/ha, with addition of 0.2% wetting agent. After the treatment, the pots are placed in a greenhouse and kept under good growth conditions for the trial plants. The damage to the test plants is scored visually after a test period of 3 weeks by comparison with untreated controls (herbicidal activity in percent (%): 100% activity=the plants have died, 0% activity=like control plants). In this case, for example, compound Nos. 1-086, 1-028, 1-206, 1-447, 1-448, 1-449, 1-454, 1-458, 1-470, 1-471, 1-472, 1-477, 1-487, 2-477, 2-480, 2-500, 3-143, 3-475, 3-491, 4-188, 4-495, 4-430, 4-496, 13-001, 13-031 and 13-032, at an application rate of 320 g/ha, each show at least 80% efficacy against Abutilon theophrasti and Veronica persica.

Abutilon theophrasti [2] = test: as above; settings: 504 h, application rate 320 g/ha, scored visually after 3 weeks vs untreated controls, 100% = plants have died, 0% = like control plants, read-out: efficacy (herbicidal activity in percent) against Abutilon theophrasti
Text: as §1

Veronica persica [3] = test: Post-emergence herbicidal action against harmful plants; settings: 504 h, one-leaf stage, application rate 80 g/ha, assessed visually after about 3 weeks vs untreated controls, 100% = plants have died, 0% = like control plants, read-out: efficacy (herbicidal action in percent) against Veronica persica
Experimental: (§2) 2. Post-Emergence Herbicidal Action Against Harmful Plants Seeds of monocotyledonous and dicotyledonous weed and crop plants are laid out in sandy loam soil in wood-fiber pots, covered with soil and cultivated in a greenhouse under good growth conditions. 2 to 3 weeks after sowing, the test plants are treated at the one-leaf stage. The compounds of the invention, formulated in the form of wettable powders (WP) or as emulsion concentrates (EC), are then sprayed onto the green parts of the plants in the form of an aqueous suspension or emulsion at a water application rate equating to 600 to 800 I/ha, with addition of 0.2% wetting agent. After the test plants have been left to stand in the greenhouse under optimal growth conditions for about 3 weeks, the action of the preparations is assessed visually in comparison to untreated controls (herbicidal action in percent (%): 100% activity=the plants have died, 0% activity=like control plants). In this case, for example, compound Nos. 1-028, 1-085, 1-086, 1-206, 1-447, 1-448, 1-449, 1-453, 1-457, 1-460, 1-470, 1-471, 1-472, 1-487, 2-500, 3-143, 3-146, 3-487, 3-491, 3-492, 4-144, 4-188, 13-001, 13-031 and 13-032, at an application rate of 80 g/ha, each show at least 80% efficacy against Abutilon theophrasti and Veronica persica.

Abutilon theophrasti [4] = test: as above; settings: 504 h, one-leaf stage, application rate 80 g/ha, assessed visually after about 3 weeks vs untreated controls, 100% = plants have died, 0% = like control plants, read-out: efficacy (herbicidal action in percent) against Abutilon theophrasti
Experimental: as §2

CC(C)c1c(C(=O)N(C(=O)c2ccc(C(F)(F)F)c(S(C)(=O)=O)c2C(C)C)c2nnnn2C)ccc(C(F)(F)F)c1S(C)(=O)=O [1-206]
≥ 80%: pest or weed control at 320 g/ha (Veronica persica [1]) | pest or weed control at 320 g/ha (Abutilon theophrasti [2]) | pest or weed control at 80 g/ha (Veronica persica [3]) | pest or weed control at 80 g/ha (Abutilon theophrasti [4])

Cc1c(C(=O)N(C(=O)c2ccc(C(F)(F)F)c(N)c2C)c2nnnn2C)ccc(C(F)(F)F)c1N [1-447]
≥ 80%: pest or weed control at 320 g/ha (Veronica persica [1]) | pest or weed control at 320 g/ha (Abutilon theophrasti [2]) | pest or weed control at 80 g/ha (Veronica persica [3]) | pest or weed control at 80 g/ha (Abutilon theophrasti [4])

Cc1c(C(=O)N(C(=O)c2ccc(C(F)(F)F)c(N(C)C)c2C)c2nnnn2C)ccc(C(F)(F)F)c1N(C)C [1-448]
≥ 80%: pest or weed control at 320 g/ha (Veronica persica [1]) | pest or weed control at 320 g/ha (Abutilon theophrasti [2]) | pest or weed control at 80 g/ha (Veronica persica [3]) | pest or weed control at 80 g/ha (Abutilon theophrasti [4])

CNc1c(C(F)(F)F)ccc(C(=O)N(C(=O)c2ccc(C(F)(F)F)c(NC)c2C)c2nnnn2C)c1C [1-449]
≥ 80%: pest or weed control at 320 g/ha (Veronica persica [1]) | pest or weed control at 320 g/ha (Abutilon theophrasti [2]) | pest or weed control at 80 g/ha (Veronica persica [3]) | pest or weed control at 80 g/ha (Abutilon theophrasti [4])

CCOC(=O)c1c(SC)ccc(C(=O)N(C(=O)c2ccc(SC)c(C(=O)OCC)c2C)c2nnnn2C)c1C [1-453, 3-(ethoxycarbonyl)-2-methyl-4-(methylsulfanyl)-N-(3-(ethoxycarbonyl)-2-methyl-4-(methylsulfanyl)benzoyl)-N-(1-methyltetrazol-5-yl)benzamide]
≥ 80%: pest or weed control at 80 g/ha (Veronica persica [3]) | pest or weed control at 80 g/ha (Abutilon theophrasti [4])

CSc1c(N(C)C)ccc(C(=O)N(C(=O)c2ccc(N(C)C)c(SC)c2C)c2nnnn2C)c1C [1-454]
≥ 80%: pest or weed control at 320 g/ha (Veronica persica [1]) | pest or weed control at 320 g/ha (Abutilon theophrasti [2])

CCOc1ccc(C(=O)N(C(=O)c2ccc(OCC)c(SC)c2C)c2nnnn2C)c(C)c1SC [1-457]
≥ 80%: pest or weed control at 80 g/ha (Veronica persica [3]) | pest or weed control at 80 g/ha (Abutilon theophrasti [4])

CSc1c(OCC(F)(F)F)ccc(C(=O)N(C(=O)c2ccc(OCC(F)(F)F)c(SC)c2C)c2nnnn2C)c1C [1-458]
≥ 80%: pest or weed control at 320 g/ha (Veronica persica [1]) | pest or weed control at 320 g/ha (Abutilon theophrasti [2])

CSc1cc(C)cc(C(=O)N(C(=O)c2cc(C)cc(SC)c2C)c2nnnn2C)c1C [1-460]
≥ 80%: pest or weed control at 80 g/ha (Veronica persica [3]) | pest or weed control at 80 g/ha (Abutilon theophrasti [4])

CCOc1c(C(=O)N(C(=O)c2ccc(C(F)(F)F)c(SC)c2OCC)c2nnnn2C)ccc(C(F)(F)F)c1SC [1-471]
≥ 80%: pest or weed control at 320 g/ha (Veronica persica [1]) | pest or weed control at 320 g/ha (Abutilon theophrasti [2]) | pest or weed control at 80 g/ha (Veronica persica [3]) | pest or weed control at 80 g/ha (Abutilon theophrasti [4])

CCOc1c(C(=O)N(C(=O)c2ccc(C(F)(F)F)c(S(C)(=O)=O)c2OCC)c2nnnn2C)ccc(C(F)(F)F)c1S(C)(=O)=O [1-472]
≥ 80%: pest or weed control at 320 g/ha (Veronica persica [1]) | pest or weed control at 320 g/ha (Abutilon theophrasti [2]) | pest or weed control at 80 g/ha (Veronica persica [3]) | pest or weed control at 80 g/ha (Abutilon theophrasti [4])

Cc1nonc1N(C(=O)c1ccc(C(F)(F)F)c([S+](C)[O-])c1C)C(=O)c1ccc(C(F)(F)F)c([S+](C)[O-])c1C (centres unmarked) [4-144]
≥ 80%: pest or weed control at 80 g/ha (Veronica persica [3]) | pest or weed control at 80 g/ha (Abutilon theophrasti [4])

CC[S+]([O-])c1c(S(C)(=O)=O)ccc(C(=O)N(C(=O)c2ccc(S(C)(=O)=O)c([S+]([O-])CC)c2C)c2nonc2C)c1C (centres unmarked) [4-188]
≥ 80%: pest or weed control at 320 g/ha (Veronica persica [1]) | pest or weed control at 320 g/ha (Abutilon theophrasti [2]) | pest or weed control at 80 g/ha (Veronica persica [3]) | pest or weed control at 80 g/ha (Abutilon theophrasti [4])

CC(=O)N(C(=O)c1ccc(C(F)(F)F)cc1S(C)(=O)=O)c1nnnn1C [13-001, 2-(methylsulfonyl)-4-trifluoromethyl-N-acetyl-N-(1-methyltetrazol-5-yl)benzamide]
≥ 80%: pest or weed control at 320 g/ha (Veronica persica [1]) | pest or weed control at 320 g/ha (Abutilon theophrasti [2]) | pest or weed control at 80 g/ha (Veronica persica [3]) | pest or weed control at 80 g/ha (Abutilon theophrasti [4])
